Laboratory results reported in publication PMC10895674, “First-in-Class Dual EZH2-HSP90 Inhibitor Eliciting Striking Antiglioblastoma Activity In Vitro and In Vivo” (Journal of Medicinal Chemistry, 2024).
Read-outs that look alike come from different tables or passages of the source.

Key:
[1] = tested on: Pt#3-R-induced tumor; assay: In vivo anti-GBM efficacy, Pt3R xenograft; conditions: 20 mg/kg, intraperitoneally twice per week, NOD.CB17-Prkdc scid mice
Method: In vivo anti-GBM efficacy of compound 7 was also evaluated in this study. For the in vivo study, experimental NOD.CB17-Prkdc^scid/NCrCrl mice (8-week-old) were used and Pt3R cells (1 × 10^6) in 50 μL Dulbecco’s modified Eagle’s medium (DMEM) were injected into the back of mice. After 10 days, the tumor was detectable. […] In a nutshell, the outcome of the in vivo study ascertains that the remarkable in vitro anti-GBM activity profile of dual inhibitor 7 was translated to the in vivo potential.
Animal experiments were approved by the institutional animal care and use committee of Taipei Medical University (IACUC: LAC2022-0288). Male NOD.CB17-Prkdc^scid/NCrCrl mice (8-week-old) were purchased from BioLASCO Taiwan Co., Ltd. (Taipei, Taiwan). Pt3R cells (1 × 10^6) in 50 μL of DMEM were injected into the back of mice. Experimental mice were grouped as follows (Figure 11): DMSO (n = 5), C7–10 mg/kg (n = 4), C7–20 mg/kg (n = 6), TAZ-10 mg/kg (n = 6), TAZ-20 mg/kg (n = 8), STA-5+TAZ-5 mg/kg (n = 7), STA-10+TAZ-10 mg/kg (n = 7) and STA-15+TAZ-15 mg/kg (n = 7). After 10 days, the tumor was touchable. Mice were injected intraperitoneally with DMSO (the control group) or compounds twice per week.

[2] = tested on: TMZ-resistant Pt3R cells; assay: RNA-seq gene expression profile (and cell morphology) after 48 h; type: cell-based, human
Method: To gain insights regarding the ability of dual inhibitor 7 to suppress the viability of TMZ-resistant GBM cells, RNA-seq to analyze gene expression profiles was performed.
Figure 7 Effect of compound 7 on gene expression profile in TMZ-resistant Pt3R cells. […] (B) GSEA functionally grouped genes. (C) Genes involved in apoptosis/necrosis and M phase/Kinetochore/Spindle were clustered in the heatmap.
RNA was isolated using the RNA extracting kit (Zymo Research, Irvine, CA) and subjected to RNA-seq serviced by BIOTOOLS Co., Ltd. (New Taipei City, Taiwan). Cell pellets were collected and subjected to proteomic analysis serviced by BIOTOOLS Co., Ltd. The comparison in gene expression between Pt3 and Pt3R was performed using RNA seq and described previously.[60]

[3] = target: HSP90a (Homo sapiens, UniProt P07900); assay: In vitro Hsp90 assay (Reaction Biology Corp.); type: biochemical; conditions: 10-dose IC50 mode, 3-fold serial dilution starting at 10 μM, single experiment; '-' read as no inhibition
Method: The HSP90 inhibitory activity of the synthesized adduct was assessed by Reaction Biology Corporation Malvern, PA. (http://www.reactionbiology.com).

[4] = tested on: Pt3R cells; assay: ROS assay (DHR, flow cytometry); type: cell-based, human; conditions: 48 h
Method: (§1) Figure 10 Compound 7 triggers ROS production from mitochondria. (A) After treatment for 48 h, cells were stained with the DHR reagent, and the fluorescent signal was estimated by flow cytometry. Treatment concentration of compound 7 was indicated. (B) Protein lysates were subjected to Western blotting using the indicated antibody. (C) After staining with MitoSOX (red) and Hoechst 33342 (blue), cellular signals were photographed and quantified D. Protein lysates were subjected to Western blotting using the indicated antibody.
(§2) Dihydrorhodamine 123 (DHR; Thermo Fisher Scientific, Waltham, MA) was used to label cellular ROS detected by the flow cytometry,[54] and the MitoSOX reagent (Thermo Fisher Scientific) was used to label mitochondrial ROS.[55]

[5] = tested on: Pt3 cells; assay: ROS assay (DHR, flow cytometry); type: cell-based, human; conditions: 48 h
Method: as §1, §2

[6] = Pharmacokinetics IV and PO; design: species or system Rat; conditions: in vivo
Method: Table S1: Pharmacokinetic data of compound 7
Rat IV (dose: 2 mg/kg) Rat PO (dose: 20 mg/kg)
T1/2 CL Vss AUC(0-inf) T1/2 Cmax Tmax AUC(0-inf) F
(hr) (ml/min/kg) (l/kg) (ng/mL*hr) (hr) (ng/ml) (hr) (ng/mL*hr) (%)
Sample Time (hr) Avg. S.D.

[7] = tested on: Pt3R cells; assay: Cell cycle analysis (PI staining, flow cytometry); type: cell-based, human; conditions: 24 h treatment (Figure 8E)
Method: Figure 8 Compound 7 suppresses gene expression of CENP family. (A) Compound 7-suppressed CENP family. (B) Gene expression of CENP family in Pt3 and TMZ-resistant Pt3R cells. (C) Prognostic value was analyzed using the GlioVis Web site. (D) Western blotting was used to confirm that compound 7 decreased CENPs expression. (E) Cell cycle analysis. After treatment for 24 h, cells were stained with propidium iodide (PI) and subjected to flow cytometry analysis.

[8] = Rat IV 2 mg/kg, read-out: Drug Conc. Avg.
[9] = Rat PO 20 mg/kg, read-out: Drug Conc. Avg.

CCN(c1cc(-c2cccc(N(C)C(=O)c3cc(C(C)C)c(O)cc3O)c2)cc(C(=O)NCc2c(C)cc(C)[nH]c2=O)c1C)C1CCOCC1 [Compound 7, 3′-(2,4-Dihydroxy-5-isopropyl-N-methylbenzamido)-N-((4,6-dimethyl-2-oxo-1,2-dihydropyridin-3-yl)methyl)-5-(ethyl(tetrahydro-2H-pyran-4-yl)amino)-4-methyl-[1,1′-biphenyl]-3-carboxamide]
growth of Pt#3-R-induced tumor [1]: significantly decreased the growth
centromere proteins (CENPs) CENPF, CENPE, CENPA, CENPI gene expression ([2]; Pt3R (Figure 8C)): decreased
RBBP8 and BRCA1 gene expression ([2]; Pt3R (Figure 9A)): suppressed
genes regulating homologous recombination (TOP2A, RAD54B, RAD21, EME1, BRIP1) ([2]; Pt3R (Figure 9H)): suppressed
number of gene expressions decreased (RNA-seq) ([2]; Pt3R, 2 μM, 48 h): 498
number of gene expressions increased (RNA-seq) ([2]; Pt3R, 2 μM, 48 h): 297
cell proliferation ([2]; Pt3R, 2 μM, 48 h (Figure 7A)): significantly inhibited cell proliferation
M phase/kinetochore/spindle-related gene expression ([2]; Pt3R, 48 h): decreased
apoptosis/necrosis-related gene expression ([2]; Pt3R, 48 h): increased
IC50 [3]: 60.1 nM
ROS level [4]: increased
ROS level [5]: increased
concentration at 0.03 hr ([6]; Rat IV 2 mg/kg, 0.03 hr, read-out: Drug Conc. Avg.): 2790 ng/mL
concentration at 0.08 hr ([6]; Rat IV 2 mg/kg, 0.08 hr, read-out: Drug Conc. Avg.): 929 ng/mL
concentration at 0.25 hr [6, 8]: 406 ng/mL
concentration at 0.5 hr [6, 8]: 218 ng/mL
concentration at 1 hr [6, 8]: 76.6 ng/mL
concentration at 2 hr [6, 8]: 30.5 ng/mL
concentration at 4 hr [6, 8]: 5 ng/mL
concentration at 6 hr [6, 8]: 1.1 ng/mL
AUC(0-inf) ([6]; Rat IV, dose 2 mg/kg): 470 ± 32 ng·h/mL
clearance ([6]; Rat IV, dose 2 mg/kg): 81.8 ± 5.8 mL/min/kg
half-life ([6]; Rat IV, dose 2 mg/kg): 0.8 h
Vd ([6]; Rat IV, dose 2 mg/kg, read-out: Vss): 3 ± 0.5 L/kg
bioavailability ([6]; Rat PO 20 mg/kg vs IV 2 mg/kg): 2.3%
concentration at 0.25 hr [6, 9]: 23 ng/mL
concentration at 0.5 hr [6, 9]: 11.1 ng/mL
concentration at 1 hr [6, 9]: 23.8 ng/mL
concentration at 2 hr [6, 9]: 15.3 ng/mL
concentration at 4 hr [6, 9]: 18.1 ng/mL
concentration at 6 hr [6, 9]: 4 ng/mL
concentration at 8 hr ([6]; Rat PO 20 mg/kg, 8 hr, read-out: Drug Conc. Avg.): 2.9 ng/mL
AUC(0-inf) ([6]; Rat PO, dose 20 mg/kg): 106 ± 62 ng·h/mL
Cmax ([6]; Rat PO, dose 20 mg/kg): 23.8 ± 8.9 ng/mL
Tmax ([6]; Rat PO, dose 20 mg/kg): 1 h
half-life ([6]; Rat PO, dose 20 mg/kg): 1.8 ± 0.5 h
cell cycle [7]: induced cell cycle arrest at the M phase
